Laboratory results published in patent US20230192661A1, “1, 4, 5, 6-TETRAHYDROPYRIMIDINE-2-AMINE DERIVATIVE” (UBE Corporation, priority 2020, published 2023).

What was measured:
αvβ6 = molecular target: T1, αvβ6 (Homo sapiens, UniProt P06756+P18564); experiment: αvβ6 cell adhesion inhibition test (HT-29 cells on recombinant human LAP protein); type: cell-based; conditions: recombinant human LAP coating, 200 μM MnCl2, 1 hour, read-out: IC50 (rate of inhibition of cell adhesion, αvβ6)
T1 construct: endogenous in cells; host or cells: HT-29 cells
Procedure: Test Example 2 was performed by partially modifying the method of Henderson et al. (Nat Med., 19 (12), 1617-24, 2013). In Test Example 2, the same reagents as in Test Example 1 were used unless otherwise specified.
Recombinant human LAP protein (manufactured by R&D Systems, Inc., 246-LP-025) was prepared at […] with PBS, dispensed at 100 μL/well to a 96-well plate, and left standing overnight. The plate was washed with HBSS, then subjected to blocking treatment with DMEM containing 1% BSA, and used as a coated plate in the adhesion test.
HT-29 cells cultured in McCoy's 5A medium (manufactured by Thermo Fisher Scientific, Inc., 16600) containing 10% FBS and 1% penicillin/streptomycin/amphotericin B were recovered and suspended in DMEM containing 0.1% BSA and 200 μM MnCl2 to prepare a cell suspension. A test compound was added thereto.
The cell suspension of 5×10^5 cells/mL containing the test compound was added at 100 μL/well to the coated plate and left standing for 1 hour in a 5% CO2 incubator (37° C.). One hour later, the supernatant was removed, and the plate was washed with HBSS containing 200 μM MnCl2. The cells that adhered to each well in the plate were stained with crystal violet, and the cells were lysed, followed by absorbance measurement. Inhibition without substrate coating was defined as 100% inhibition, and inhibition when DMSO was added instead of the test compound was defined as 0% inhibition. The rate of inhibition of cell adhesion by the test compound was calculated according to the following expression.
Rate of inhibition of cell adhesion (%)=[1−{(Absorbance in the case of adding the test compound)−(Absorbance without substrate coating)}/{(Absorbance in the case of adding DMS)−(Absorbance without substrate coating)}]×100
An IC50 value was calculated from the rate of inhibition of cell adhesion by the test compound. A: IC50<3 nM, B: 3 nM≤IC50<10 nM, C: 10 nM≤IC50<30 nM, D: 30 nM≤IC50<100 nM, or E: IC50≥100 nM.

[1] = Transcellular transport test using Caco2 cell; type: in vitro ADME; conditions: human, Caco-2; Caco2 monolayer, A-to-B, 10 μM compound, pH 7.4, 90 minutes
Procedure: Caco2 cells (purchased from ATCC) were cultured in DMEM medium (Thermo Fisher Scientific, Inc., 11965) containing 10% FBS (Thermo Fisher Scientific, Inc., 10082) and 1% penicillin/streptomycin/amphotericin B (Thermo Fisher Scientific, Inc., 15240). A transcellular transport test was carried out in accordance with MultiScreen Caco2 Drug Transport Assembly in a 96-well system (Application Note AN1727EN, MultiScreen Caco-2 Assay System, Merck) by partially modifying it. The Caco2 cells were inoculated at a cell density of 4×10^4 cells/well onto a micropore polycarbonate insert of a 96-well plate (Merck, Millcell-96 culture insert plate 0.4 μm pore size, well membrane area=0.11 cm^2, PSHT004S5) and cultured for 20 to 22 days, and the resulting monolayer was used in the transcellular transport test. The medium of the inoculated cells was replaced with a fresh one every 3 to 4 days.
Apical-to-basolateral (A-to-B) transport in the Caco2 cell monolayer membrane was performed by using HBSS (Thermo Fisher Scientific, Inc., 14025) medium (pH=7.4) containing 20 mM HEPES (Thermo Fisher Scientific, Inc., 15630), and adding HEPES-containing HBSS medium containing 10 μM compound (a 10 mM solution of the compound in DMSO was added at a 1000-fold dilution; final DMSO concentration: 0.1%) at 75 μL/well to the apical side and HEPES-containing HBSS medium supplemented with no compound at 250 μL/well to the basolateral side, followed by culture at 37° C. for 90 minutes. After culture, a 100 μL aliquot was collected from the basolateral side, and the concentration of a permeated compound was measured by LC-MS/MS under measurement conditions mentioned later. Papp (apparent permeability; cm/sec) was calculated from the determined concentration. Papp was determined according to the expression given below by calculating the slope (dA/dt; nmol/sec) of a straight line drawn between two points 0 minutes and zero amount of the compound in a graph plotted with an assay time (90 min) on the abscissa against the amount of the compound in the solution on the permeated side on the ordinate. As for an assay concentration, the concentration in the compound in the HEPES-containing HBSS medium containing the added compound was measured by UV-HPLC under measurement conditions mentioned later.
Papp (cm/sec)=C0×S×(dA/dt)
C0: assay concentration, S: plate membrane area=0.11 cm^2

T1 sequence (P06756 31-889 limits assumed): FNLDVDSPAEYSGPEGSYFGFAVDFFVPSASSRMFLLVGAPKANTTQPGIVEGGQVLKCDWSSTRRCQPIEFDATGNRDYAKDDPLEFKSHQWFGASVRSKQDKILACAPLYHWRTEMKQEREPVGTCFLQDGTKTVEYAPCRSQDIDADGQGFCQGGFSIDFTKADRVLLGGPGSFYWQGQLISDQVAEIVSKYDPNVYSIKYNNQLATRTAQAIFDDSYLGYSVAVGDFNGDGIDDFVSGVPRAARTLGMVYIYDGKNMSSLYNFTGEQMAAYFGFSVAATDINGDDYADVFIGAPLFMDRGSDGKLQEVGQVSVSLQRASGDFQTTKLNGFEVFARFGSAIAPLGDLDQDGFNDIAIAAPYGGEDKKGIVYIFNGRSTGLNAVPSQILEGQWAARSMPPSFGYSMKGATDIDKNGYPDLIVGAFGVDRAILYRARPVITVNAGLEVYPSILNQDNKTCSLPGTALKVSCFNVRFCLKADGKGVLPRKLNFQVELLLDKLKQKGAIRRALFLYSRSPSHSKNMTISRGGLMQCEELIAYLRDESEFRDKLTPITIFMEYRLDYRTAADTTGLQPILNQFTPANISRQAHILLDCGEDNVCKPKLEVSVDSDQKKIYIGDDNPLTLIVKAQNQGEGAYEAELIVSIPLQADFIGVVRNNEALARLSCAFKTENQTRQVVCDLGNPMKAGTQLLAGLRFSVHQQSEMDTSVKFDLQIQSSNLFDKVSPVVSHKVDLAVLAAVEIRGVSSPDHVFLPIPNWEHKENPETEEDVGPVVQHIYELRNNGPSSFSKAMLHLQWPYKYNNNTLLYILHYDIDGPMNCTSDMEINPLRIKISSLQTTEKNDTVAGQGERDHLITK
T1 sequence (P06756 891-1048 limits assumed): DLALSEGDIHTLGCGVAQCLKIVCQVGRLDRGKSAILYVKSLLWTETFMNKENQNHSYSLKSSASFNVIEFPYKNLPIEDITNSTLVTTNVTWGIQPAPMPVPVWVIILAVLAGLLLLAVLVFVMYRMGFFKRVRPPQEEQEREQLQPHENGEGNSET
T1 sequence (P18564 22-788): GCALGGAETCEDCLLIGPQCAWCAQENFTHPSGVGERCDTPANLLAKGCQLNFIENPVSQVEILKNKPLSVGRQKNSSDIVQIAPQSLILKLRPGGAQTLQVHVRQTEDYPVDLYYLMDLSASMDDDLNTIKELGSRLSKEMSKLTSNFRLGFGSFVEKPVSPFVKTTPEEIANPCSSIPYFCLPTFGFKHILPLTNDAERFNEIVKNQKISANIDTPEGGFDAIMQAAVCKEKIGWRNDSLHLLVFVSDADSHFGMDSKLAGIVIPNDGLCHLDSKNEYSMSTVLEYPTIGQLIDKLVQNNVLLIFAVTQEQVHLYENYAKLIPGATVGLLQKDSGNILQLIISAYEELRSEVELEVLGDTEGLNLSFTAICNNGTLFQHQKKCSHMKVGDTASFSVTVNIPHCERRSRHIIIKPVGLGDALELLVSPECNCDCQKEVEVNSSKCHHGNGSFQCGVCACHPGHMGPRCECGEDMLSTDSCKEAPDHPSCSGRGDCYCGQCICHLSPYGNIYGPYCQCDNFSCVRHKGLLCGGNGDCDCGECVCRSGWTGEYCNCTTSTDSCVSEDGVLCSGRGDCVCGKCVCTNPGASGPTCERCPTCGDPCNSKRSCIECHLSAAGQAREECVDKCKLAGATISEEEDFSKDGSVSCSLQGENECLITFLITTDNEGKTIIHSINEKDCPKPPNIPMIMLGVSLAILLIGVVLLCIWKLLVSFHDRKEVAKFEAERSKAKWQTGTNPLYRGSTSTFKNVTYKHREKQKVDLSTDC

Structure (SMILES) | IC50 (αvβ6) [nM] | Papp A→B at 90 min, 10 μM [1] [×10⁻⁶ cm/s]
O=C(O)C[C@H](NC(=O)CNC(=O)c1cc(NC2=NCC(F)CN2)c2cn[nH]c2c1)c1cc(Cl)cc(C(F)(F)F)c1 (stereo partly drawn) [Example 1-(b), (3S)-3-(3-chloro-5-(trifluoromethyl)phenyl)-3-(2-(4-((5-fluoro-1,4,5,6-tetrahydropyrimidin-2-yl)amino)-1H-indazole-6-carboxamido)acetamido)propanoic acid] | < 3 | > 1
O=C(O)C[C@H](NC(=O)CNC(=O)c1cc(NC2=NCC(F)CN2)c2cn[nH]c2c1)c1cc(Br)cc(C(F)(F)F)c1 (stereo partly drawn) [Example 2-(b), (3S)-3-(3-bromo-5-(trifluoromethyl)phenyl)-3-(2-(4-((5-fluoro-1,4,5,6-tetrahydropyrimidin-2-yl)amino)-1H-indazole-6-carboxamido)acetamido)propanoic acid] | < 3 | 0.5 to 1
O=C(O)C[C@H](NC(=O)CNC(=O)c1cc(NC2=NCC(F)CN2)c2cn[nH]c2c1)c1cc(I)cc(C(F)(F)F)c1 (stereo partly drawn) [Example 3-(b), (3S)-3-(2-(4-((5-fluoro-1,4,5,6-tetrahydropyrimidin-2-yl)amino)-1H-indazole-6-carboxamido)acetamido)-3-(3-iodo-5-(trifluoromethyl)phenyl)propanoic acid] | < 3 | > 1
Cc1cc([C@H](CC(=O)O)NC(=O)CNC(=O)c2cc(NC3=NCC(F)CN3)c3cn[nH]c3c2)cc(C(F)(F)F)c1 (stereo partly drawn) [Example 4-(b), (3S)-3-(2-(4-((5-fluoro-1,4,5,6-tetrahydropyrimidin-2-yl)amino)-1H-indazole-6-carboxamido)acetamido)-3-(3-methyl-5-(trifluoromethyl)phenyl)propanoic acid] | < 3 | > 1
COc1cc([C@H](CC(=O)O)NC(=O)CNC(=O)c2cc(NC3=NCC(F)CN3)c3cn[nH]c3c2)cc(C(F)(F)F)c1 (stereo partly drawn) [Example 5-(b), (3S)-3-(2-(4-((5-fluoro-1,4,5,6-tetrahydropyrimidin-2-yl)amino)-1H-indazole-6-carboxamido)acetamido)-3-(3-methoxy-5-(trifluoromethyl)phenyl)propanoic acid] | < 3 | 0.5 to 1
O=C(O)C[C@H](NC(=O)CNC(=O)c1cc(NC2=NCC(F)CN2)c2cn[nH]c2c1)c1cc(F)cc(C(F)(F)F)c1 (stereo partly drawn) [Example 6-(b), (3S)-3-(2-(4-((5-fluoro-1,4,5,6-tetrahydropyrimidin-2-yl)amino)-1H-indazole-6-carboxamido)acetamido)-3-(3-fluoro-5-(trifluoromethyl)phenyl)propanoic acid] | 3 to 10 | > 1
O=C(O)C[C@H](NC(=O)CNC(=O)c1cc(NC2=NCC(F)CN2)c2cn[nH]c2c1)c1cc(C(F)(F)F)cc(C(F)(F)F)c1 (stereo partly drawn) [Example 7-(b), (3S)-3-(3,5-bis(trifluoromethyl)phenyl)-3-(2-(4-((5-fluoro-1,4,5,6-tetrahydropyrimidin-2-yl)amino)-1H-indazole-6-carboxamido)acetamido)propanoic acid] | < 3 | 0.5 to 1
O=C(O)C[C@H](NC(=O)CNC(=O)c1cc(NC2=NCC(F)CN2)c2cn[nH]c2c1)c1cc(-n2cccn2)cc(C(F)(F)F)c1 (stereo partly drawn) [Example 8-(b), (3S)-3-(3-(1H-pyrazol-1-yl)-5-(trifluoromethyl)phenyl)-3-(2-(4-((5-fluoro-1,4,5,6-tetrahydropyrimidin-2-yl)amino)-1H-indazole-6-carboxamido)acetamido)propanoic acid] | < 3 | 0.5 to 1
O=C(O)C[C@H](NC(=O)CNC(=O)c1cc(NC2=NCC(F)CN2)c2cn[nH]c2c1)c1cccc(C(F)(F)F)c1F (stereo partly drawn) [Example 9-(b), (3S)-3-(2-(4-((5-fluoro-1,4,5,6-tetrahydropyrimidin-2-yl)amino)-1H-indazole-6-carboxamido)acetamido)-3-(2-fluoro-3-(trifluoromethyl)phenyl)propanoic acid] | < 3 | > 1
O=C(O)C[C@H](NC(=O)CNC(=O)c1cc(NC2=NCC(F)CN2)c2cn[nH]c2c1)c1cccc(C(F)(F)F)c1Cl (stereo partly drawn) [Example 10-(b), (3S)-3-(2-chloro-3-(trifluoromethyl)phenyl)-3-(2-(4-((5-fluoro-1,4,5,6-tetrahydropyrimidin-2-yl)amino)-1H-indazole-6-carboxamido)acetamido)propanoic acid] | ≥ 100 | > 1
O=C(O)C[C@H](NC(=O)CNC(=O)c1cc(NC2=NCC(F)CN2)c2cn[nH]c2c1)c1cc(C(F)(F)F)ccc1F (stereo partly drawn) [Example 11-(b), (3S)-3-(2-(4-((5-fluoro-1,4,5,6-tetrahydropyrimidin-2-yl)amino)-1H-indazole-6-carboxamido)acetamido)-3-(2-fluoro-5-(trifluoromethyl)phenyl)propanoic acid] | < 3 | > 1
O=C(O)C[C@H](NC(=O)CNC(=O)c1cc(NC2=NCC(F)CN2)c2cn[nH]c2c1)c1cc(C(F)(F)F)ccc1Cl (stereo partly drawn) [Example 12-(b), (3S)-3-(2-chloro-5-(trifluoromethyl)phenyl)-3-(2-(4-((5-fluoro-1,4,5,6-tetrahydropyrimidin-2-yl)amino)-1H-indazole-6-carboxamido)acetamido)propanoic acid] | 3 to 10 | > 1
O=C(O)C[C@H](NC(=O)CNC(=O)c1cc(NC2=NCC(F)CN2)c2cn[nH]c2c1)c1ccc(F)c(C(F)(F)F)c1 (stereo partly drawn) [Example 13-(b), (3S)-3-(2-(4-((5-fluoro-1,4,5,6-tetrahydropyrimidin-2-yl)amino)-1H-indazole-6-carboxamido)acetamido)-3-(4-fluoro-3-(trifluoromethyl)phenyl)propanoic acid] | < 3 | > 1
Cc1ccc([C@H](CC(=O)O)NC(=O)CNC(=O)c2cc(NC3=NCC(F)CN3)c3cn[nH]c3c2)cc1C(F)(F)F (stereo partly drawn) [Example 14-(b), (3S)-3-(2-(4-((5-fluoro-1,4,5,6-tetrahydropyrimidin-2-yl)amino)-1H-indazole-6-carboxamido)acetamido)-3-(4-methyl-3-(trifluoromethyl)phenyl)propanoic acid] | < 3 | > 1
O=C(O)C[C@H](NC(=O)CNC(=O)c1cc(NC2=NCC(F)CN2)c2cn[nH]c2c1)c1cc(Cl)c(F)c(C(F)(F)F)c1 (stereo partly drawn) [Example 15-(b), (3S)-3-(3-chloro-4-fluoro-5-(trifluoromethyl)phenyl)-3-(2-(4-((5-fluoro-1,4,5,6-tetrahydropyrimidin-2-yl)amino)-1H-indazole-6-carboxamido)acetamido)propanoic acid] | < 3 | > 1
COc1ccc([C@H](CC(=O)O)NC(=O)CNC(=O)c2cc(NC3=NCC(F)CN3)c3cn[nH]c3c2)cc1Br (stereo partly drawn) [Example 16-(b), (3S)-3-(3-bromo-4-methoxyphenyl)-3-(2-(4-((5-fluoro-1,4,5,6-tetrahydropyrimidin-2-yl)amino)-1H-indazole-6-carboxamido)acetamido)propanoic acid] | < 3 | > 1
